# Assay results as given in publication PMC10518421, “Zebrafish as model system for the biological characterization of CK1 inhibitors” (Frontiers in Pharmacology, 2023).
# Entries after “also recorded” stand apart in the source; their conditions may differ. Where two headings read alike, the source gives them in different places.
# Assays:
# [1] = molecular target: T1, GST-humCK1δ^TV1 (Homo sapiens, UniProt P48730); parameters: method as in Roth et al., 2021; details: previously established, ref Roth et al., 2021; read-out: Km(ATP); cited from earlier work
# T1 construct: made in house; host or cells: E. coli Rosetta 2 (DE3)
# [2] = molecular target: T2, GST-CK1ε (Homo sapiens, UniProt P49674); experiment: in vitro kinase assay, α-casein phosphorylation with [γ-32P]-ATP, standard conditions; assay type: biochemical; details: Michaelis-Menten, ATP 0.5-250 µM
# T2 construct: made in house; host or cells: E. coli Rosetta 2 (DE3)
# Experimental: (§1) Each in vitro kinase reaction was performed in a total volume of 15 µL containing 25 mM Tris-HCl (pH 7.0), 10 mM MgCl2, 100 µM EDTA, 2.8 µM of the substrate α-casein and 0.4 pmol [γ-^32P]-ATP at 30°C. […] Reactions were stopped by adding 3 µL of 5x SDS loading buffer and incubating at 95°C for 5 min. Proteins were separated by SDS-PAGE and stained with Coomassie Brilliant Blue R250 (Waldeck GmbH & Co. KG, Muenster, Germany). Autoradiography visualized the incorporation of radioactively labelled γ-phosphate into the proteins. A quantitative analysis of the radioactive signal was performed by excising the proteins from dried gels and measuring phosphate incorporation via Cherenkov counting (Beckmann Scintillation Counter). For the determination of the initial velocity region, a linear regression was performed. Thereby, the number of included data-points was decreased stepwise, and the point of time with the highest maximum coefficient of determination (R ^2) was chosen as the kinase-specific standard reaction time. For determination of the maximal velocity (Vmax) and Michaelis constant (Km) of ATP, various ATP concentrations in a range from 0.5 to 250 µM were tested. Raw data was used for the calculation of enzyme velocity (V) in [pmol/min]. Then, V was plotted over substrate (ATP) concentration and fitted to the Michaelis-Menten model via GraphPad Prism 8 (GraphPad Software, La Jolla, CA, United States). According to the Michaelis-Menten curve, Km, which is the concentration of the substrate, that is needed to obtain half Vmax, was calculated. For determination of IC50 values, the scintillation data measured in cpm was transformed to pmol of transferred phosphate. The data was then transformed logarithmically (X = log(X)), normalized to DMSO (100%) and zero (0%) before fitting to sigmoidal dose-response curves with variable slope with nonlinear regression using GraphPad Prism 7.
# (§2) In compliance with the established standard conditions the kinase assays were performed in the presence of 20 µM of the respective inhibitor (Figure 7).
# [3] = system: His-DrCK1ε; experiment: as above; assay type: biochemical, zebrafish (Danio rerio); details: Michaelis-Menten, ATP 0.5-250 µM
# Experimental: as §1, §2
# [4] = molecular target: T3, His-DrCK1δB (Danio rerio, UniProt Q6P3K7); experiment: as above; assay type: biochemical, zebrafish (Danio rerio); details: Michaelis-Menten, ATP 0.5-250 µM
# T3 construct: made in house; host or cells: E. coli Rosetta 2 (DE3)
# T3 sequence (Q6P3K7 1-409): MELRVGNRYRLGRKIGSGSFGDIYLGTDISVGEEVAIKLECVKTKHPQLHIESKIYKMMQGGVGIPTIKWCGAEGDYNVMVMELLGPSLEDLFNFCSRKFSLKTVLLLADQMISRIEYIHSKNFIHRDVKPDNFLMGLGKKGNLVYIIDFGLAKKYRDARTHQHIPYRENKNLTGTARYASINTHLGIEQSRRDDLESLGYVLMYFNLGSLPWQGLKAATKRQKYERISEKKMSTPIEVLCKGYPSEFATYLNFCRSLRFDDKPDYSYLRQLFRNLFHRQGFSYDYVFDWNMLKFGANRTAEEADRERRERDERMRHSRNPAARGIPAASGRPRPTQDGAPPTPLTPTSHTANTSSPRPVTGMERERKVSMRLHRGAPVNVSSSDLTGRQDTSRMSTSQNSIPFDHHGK
# Experimental: as §1, §2
# (§3) Next, in vitro kinase assays were performed in absence and presence of the respective SMI at different concentrations (ranging from 13 to 26667 nM). The kinase activity of the inhibitor-treated samples was normalized to the DMSO-control and plotted against the inhibitor concentration (Figure 10).
# [5] = molecular target: T4, His-DrCK1δA (Danio rerio, UniProt Q7T2E3); experiment: as above; assay type: biochemical, zebrafish (Danio rerio); details: Michaelis-Menten, ATP 0.5-250 µM
# T4 construct: made in house; host or cells: E. coli Rosetta 2 (DE3)
# T4 sequence (Q7T2E3 1-403): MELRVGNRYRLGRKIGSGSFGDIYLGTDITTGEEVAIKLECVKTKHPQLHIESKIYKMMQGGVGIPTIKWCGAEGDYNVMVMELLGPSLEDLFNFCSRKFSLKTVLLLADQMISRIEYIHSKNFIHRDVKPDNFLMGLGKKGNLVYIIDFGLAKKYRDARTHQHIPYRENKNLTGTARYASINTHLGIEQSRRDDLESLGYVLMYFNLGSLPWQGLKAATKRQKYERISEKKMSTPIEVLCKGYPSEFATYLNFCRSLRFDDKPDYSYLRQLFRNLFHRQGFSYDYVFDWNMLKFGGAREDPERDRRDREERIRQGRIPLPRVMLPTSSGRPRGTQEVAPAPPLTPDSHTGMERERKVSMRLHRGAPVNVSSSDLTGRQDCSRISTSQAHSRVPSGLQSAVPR
# Experimental: as §1, §2, §3
# [6] = system: CK1δ; parameters: method as in Bischof et al., 2012; Bibian et al., 2013; details: ref Bischof et al., 2012; Bibian et al., 2013; cited from earlier work
# [7] = system: zebrafish embryos
# Experimental: The TüAB wildtype strain was used for all experiments. […] Zebrafish embryos were dechorionated at 24 h post fertilization (hpf) and treated with the respective concentration of inhibitor, dissolved in DMSO (Sigma-Aldrich, Stadt, Land) and diluted in E3 medium (5 mM NaCl, 0.17 mM KCl, 0.33 mM CaCl2, 0.33 mM MgSO4, 0.6 µM Methylene Blue dissolved in water). DMSO served as solvent control. Embryos were treated from 24 hpf until 72 hpf, the compound solution was renewed daily. Pictures and movies were recorded at 48 and 72 hpf. […] Pictures were taken on an Olympus stereo microscope SZX16 and movies were recorded on an inverse Leica stereo microscope DM IL LED Fluo equipped with a FLEXACAM C1.
# Embryos were dechorionated at 24 hpf and treated with 20 µM of the respective inhibitor (Figure 6A).
# [8] = molecular target: CK1δ (rat) (Rattus norvegicus, UniProt Q06486); experiment: initial IC50 determination in in vitro kinase assays, prior to standardization; assay type: biochemical; details: not published
# Experimental: (§4) The SMIs used in this study (summarized in Supplementary Table S2) were selected based on their inhibitory capacity toward CK1δ in vitro, whereby a broad range of inhibitors with varying efficiency were included. The determination of IC50-values was conducted prior to the standardization workflow establishment. Zebrafish embryos treated with 20 µM of the respective compound were phenotypically analyzed.
# (§5) Supplementary Table 6: List of the inhibitors that were selected for the in vivo screening of zebrafish embryonic development. The compounds were selected based on their ability to inhibit CK1δ in in vitro kinase assays. The initial IC50-values were determined prior to the establishment of the standardized in vitro kinase assay protocol. The Supplementary Table summarizes, whether the zebrafish embryos presented an abnormal phenotype upon inhibitor treatment. The inhibitors were added to the zebrafish medium in a concentration of 20 µM.
# [9] = molecular target: CK1ε (Homo sapiens, UniProt P49674); experiment: as above; assay type: biochemical; details: not published, read-out: IC50 values wtCK1ε
# Experimental: as §4, §5
# [10] = molecular target: M28FCK1δ (rat) (Rattus norvegicus, UniProt Q06486, M82F); experiment: as above; assay type: biochemical
# [11] = molecular target: T5, CK1δ (TV2) (Homo sapiens, UniProt P48730); experiment: as above; assay type: biochemical; details: not published
# T5 sequence (P48730 1-409 isoform P48730-2): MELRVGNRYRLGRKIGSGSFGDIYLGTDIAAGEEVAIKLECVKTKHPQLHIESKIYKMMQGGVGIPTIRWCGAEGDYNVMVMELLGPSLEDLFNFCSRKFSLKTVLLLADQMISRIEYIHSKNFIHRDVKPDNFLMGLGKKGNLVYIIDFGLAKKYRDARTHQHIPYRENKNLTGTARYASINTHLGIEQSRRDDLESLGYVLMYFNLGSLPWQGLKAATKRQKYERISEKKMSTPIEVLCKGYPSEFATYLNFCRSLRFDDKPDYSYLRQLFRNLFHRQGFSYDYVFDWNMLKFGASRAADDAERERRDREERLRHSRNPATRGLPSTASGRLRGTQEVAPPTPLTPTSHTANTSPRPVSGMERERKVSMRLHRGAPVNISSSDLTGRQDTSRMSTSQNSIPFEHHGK
# Experimental: as §4, §5
# [12] = molecular target: CK1δ (TV1) (Homo sapiens, UniProt P48730); experiment: as above; assay type: biochemical; details: not published
# Experimental: as §4, §5
# [13] = system: zebrafish PKCα; parameters: method as in Qiao et al., 2021; details: ref Qiao et al., 2021; cited from earlier work
# [14] = system: human PKCα; parameters: method as in Qiao et al., 2021; details: ref Qiao et al., 2021; cited from earlier work
# [15] = system: csnk1da (CK1δA); experiment: morpholino knockdown in zebrafish embryos, phenotype; assay type: in vivo, zebrafish (D. rerio); details: 400 µM injected, 72 hpf
# Source text: The TüAB wildtype strain was used for all experiments. […] DMSO served as solvent control. […] Embryos were immobilized in 2.5% methylcellulose.
# Chain of M28FCK1δ (rat) (Q06486 whole entry M82F): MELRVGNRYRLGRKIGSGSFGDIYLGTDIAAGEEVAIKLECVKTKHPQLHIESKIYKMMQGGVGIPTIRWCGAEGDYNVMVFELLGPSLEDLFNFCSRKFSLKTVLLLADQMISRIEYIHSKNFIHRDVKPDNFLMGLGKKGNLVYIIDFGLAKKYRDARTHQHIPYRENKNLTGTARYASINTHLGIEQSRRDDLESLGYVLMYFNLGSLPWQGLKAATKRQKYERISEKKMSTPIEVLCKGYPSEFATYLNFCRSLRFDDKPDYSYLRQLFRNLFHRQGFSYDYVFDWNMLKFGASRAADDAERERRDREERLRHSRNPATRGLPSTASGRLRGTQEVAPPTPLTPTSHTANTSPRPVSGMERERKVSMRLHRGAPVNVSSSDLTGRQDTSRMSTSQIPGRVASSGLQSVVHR
# Chain of CK1ε (P49674 whole entry): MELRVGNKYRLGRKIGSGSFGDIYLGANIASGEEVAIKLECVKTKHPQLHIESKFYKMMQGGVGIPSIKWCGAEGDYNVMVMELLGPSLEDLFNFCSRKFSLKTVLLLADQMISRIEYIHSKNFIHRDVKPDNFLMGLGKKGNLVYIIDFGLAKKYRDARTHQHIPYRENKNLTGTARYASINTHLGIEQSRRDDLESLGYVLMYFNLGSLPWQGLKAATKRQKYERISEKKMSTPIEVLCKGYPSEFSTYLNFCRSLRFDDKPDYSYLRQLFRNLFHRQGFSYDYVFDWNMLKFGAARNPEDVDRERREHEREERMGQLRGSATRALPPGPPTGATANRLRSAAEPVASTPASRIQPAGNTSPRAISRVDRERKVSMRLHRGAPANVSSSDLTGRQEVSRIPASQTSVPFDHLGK
# Chain of CK1δ (rat) (Q06486 whole entry): as the sequence (Q06486 whole entry M82F) above, with F82M counted along it
# Chain of CK1δ (TV1) (P48730 whole entry): as the sequence (Q06486 whole entry M82F) above, with F82M, V381I counted along it
# T1 sequence (P48730 whole entry): as the sequence (Q06486 whole entry M82F) above, with F82M, V381I counted along it
# T2 sequence (P49674 whole entry): as the sequence (P49674 whole entry) above
compound,measurement,setting,value
Nc1ncnc2c1ncn2[C@@H]1O[C@H](COP(=O)(O)OP(=O)(O)OP(=O)(O)O)[C@@H](O)[C@H]1O [ATP],Km,[1],6 µM
same,Km,[2],15.4 µM
same,Km,[3],14.5 µM
same,Km,[4],5.31 µM
same,Km,[5],12 µM
O=C(Nc1nc2ccc(C(F)(F)F)cc2[nH]1)c1csc(NC(=O)c2ccccc2OC(F)(F)F)n1 [Bischof-5],50% inhibitory concentration (IC50) values,[6],double-digit nanomolar range
"COc1cc(Cn2c(SCC(=O)Nc3nc4ccc(C(F)(F)F)cc4s3)nc3c(c2=O)SCC3)cc(OC)c1 [G1-4, 2-((3-(3,5-Dimethoxybenzyl)-4-oxo-3,4,6,7-tetrahydrothieno[3,2-d]pyrimidin-2-yl)thio)-N-(6-(trifluormethyl)benzo [d]thiazol-2-yl)acetamid]",Phenotypic changes,"[7]; zebrafish, in vivo",None observed
same,Phenotypic changes (with severity) after treatment of zebrafish embryos with 20 µM inhibitor,"[7]; zebrafish, in vivo",No
same,IC50,[8],380 nM
same,IC50,[9],3200 nM
same,IC50,"[10]; prior to standardization, not published, read-out: IC50 values M28FCK1δ (rat)",160 nM
"CC(C)n1c(SCC(=O)Nc2nc3ccc(C(F)(F)F)cc3s2)nc2c(c1=O)SCC2 [G1-5, 2-((3-Isopropyl-4-oxo-3,4,6,7-tetrahydrothieno[3,2-d]pyrimidin-2-yl)thio)-N-(6-(trifluormethyl)benzo [d]thiazol-2-yl)acetamid]",Phenotypic changes (with severity) after treatment of zebrafish embryos with 20 µM inhibitor,"[7]; 20 µM in medium, from 24 hpf",Yes (mild)
same,phenotype of treated zebrafish embryos,"[7]; 20 µM, 24 to 72 hpf (48 h)",weak effect on heart development and function with a mild bradycardia and reduced heart rate; also recorded: a curved tail
same,IC50,[11],510 nM
same,IC50,[12],380 nM
same,IC50,[8],160 nM
same,IC50,[9],780 nM
same,IC50,[10],120 nM
O=S(=O)(NCCNC/C=C/c1ccc(Br)cc1)c1cccc2cnccc12 [H89],IC50,[13],49800 nM
same,IC50,[14],31200 nM
Fc1cccc(-n2cnc3c(NCc4nc5c(F)c(F)ccc5[nH]4)nc(N4CCOCC4)nc32)c1 [SR-3029],50% inhibitory concentration (IC50) values,[6],double-digit nanomolar range
"csnk1da: morpholino-modified antisense oligonucleotide targeting the translational start site of csnk1da, 5′-TCGGTTTCCTACTCTCAATTCCATG-3′ (all phosphorodiamidate morpholino (PMO))",phenotype of morpholino injected embryos,[15],reduced heart function resulting in blood congestion; also recorded: cardiac malfunction
